According to US7875261B2, “Fluorinated resorufin compounds and their application” (Life Technologies Corporation, priority 2003, dated 2011):
Each block holds one compound with its values, some of them ahead of it.

Legend:
[1] = target: T1, horseradish peroxidase (HRP) (Armoracia rusticana, UniProt P00433); assay: Detection of horseradish peroxidase activity at acidic pH; format: biochemical; conditions: for Z-factor: pH 5.5, 50 μM H2O2, 60 minutes at 30° C.; for Lower limit of detection of HRP activity: pH 5.5, dye as reporting fluorogenic substrate
T1 sequence (P00433 31-338): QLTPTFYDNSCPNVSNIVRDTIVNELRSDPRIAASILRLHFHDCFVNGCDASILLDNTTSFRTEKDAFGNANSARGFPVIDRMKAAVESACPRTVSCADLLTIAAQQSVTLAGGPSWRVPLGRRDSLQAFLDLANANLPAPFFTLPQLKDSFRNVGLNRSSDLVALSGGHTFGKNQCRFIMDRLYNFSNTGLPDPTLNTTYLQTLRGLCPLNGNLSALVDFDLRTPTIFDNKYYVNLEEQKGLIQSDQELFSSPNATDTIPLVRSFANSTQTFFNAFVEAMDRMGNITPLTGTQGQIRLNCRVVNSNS
Procedure: A dilution series of horseradish peroxidase (HRP; EC 1.11.1.7) was prepared in 0.1 M sodium acetate, pH 5.5. The enzyme dilutions were added to a CoStar 96-well round bottom plate in 50 μL aliquots. Mixtures containing 100 μM hydrogen peroxide (H2O2), 0.1 M sodium acetate, pH 5.5, and 100 μM Amplex Red or 100 μM Compound 4 were prepared, and reactions were initiated by addition of 50 μL of reagent mixture to the enzyme dilution series. Reactions were done in triplicate, for 60 minutes at 30° C. Fluorescence was measured with a CytoFluor® Series 4000 Multi-Well Plate Reader (PerSeptive Biosystems, Framingham, Mass.), 530+/−12.5 nm excitation, 580+/−25 nm emission. The fluorescent signal was graphed as a function of HRP concentration (See, FIG. 9) and the Z-factor (Table 6) was calculated according to Zhang et al. (1999).

[2] = target: T2, Recombinant human cyclooxygenase-2 (COX-2) (Homo sapiens, UniProt P35354); assay: Cyclooxygenase-2 assay; format: biochemical; conditions: 50 μM dye, 100 μM arachidonic acid, 2 μM hemin, 37° C., thirty minutes, FIG. 2
T2 construct: purchased Cayman Chemical
T2 sequence (P35354 18-604): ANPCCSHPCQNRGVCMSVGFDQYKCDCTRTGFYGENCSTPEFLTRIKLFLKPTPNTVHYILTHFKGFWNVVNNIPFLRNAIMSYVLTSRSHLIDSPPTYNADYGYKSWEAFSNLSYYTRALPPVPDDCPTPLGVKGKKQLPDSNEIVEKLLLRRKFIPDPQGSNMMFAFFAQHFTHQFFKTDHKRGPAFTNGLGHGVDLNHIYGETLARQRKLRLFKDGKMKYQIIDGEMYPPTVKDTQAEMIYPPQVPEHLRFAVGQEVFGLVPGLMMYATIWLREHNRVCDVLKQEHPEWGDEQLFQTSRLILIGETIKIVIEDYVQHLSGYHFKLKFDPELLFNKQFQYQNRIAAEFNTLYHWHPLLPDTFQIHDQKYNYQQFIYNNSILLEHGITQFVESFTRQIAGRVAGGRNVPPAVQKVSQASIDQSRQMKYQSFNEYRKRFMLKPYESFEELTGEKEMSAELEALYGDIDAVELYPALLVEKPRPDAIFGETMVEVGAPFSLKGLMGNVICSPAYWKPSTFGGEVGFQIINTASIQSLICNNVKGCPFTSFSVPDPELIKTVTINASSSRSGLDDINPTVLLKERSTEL
Procedure: Amplex Red (Molecular Probes, Inc. A-12222) and Compound 4 were resuspended to 10 mM in dry DMSO. Recombinant human cyclooxygenase-2 (COX-2, from Cayman Chemical) was serially diluted (in triplicate for each dye) two-fold in a 96-well microplate in 50 μl of 100 mM Tris, pH 8.0. 10 μl of 20 μM hemin (a COX-2 cofactor) in 100 mM Tris, pH 8.0 was added to all wells. After a five minute incubation at room temperature to allow the hemin to interact with the COX-2 enzyme, 40 μl of either 125 μM Amplex Red+250 μM arachidonic acid or 125 μM Compound 4+250 μM arachidonic acid in 100 mM Tris, pH 8.0 was added to all wells. The final reagent concentrations in the wells was zero to 50 Units/ml COX-2, 2 μM hemin, 100 μM arachidonic acid, and 50 μM Amplex Red reagent or Compound 4 in 100 μl of 100 mM Tris, pH 8.0.
(§1) The resulting reactions were incubated at 37° C. in the dark for thirty minutes. At that point, the resulting fluorescence was measured on a PerSeptive Biosystems CytoFluor 4000 microtiter plate reader (Framingham, Mass.). The excitation filter was 530 nm (+/−12.5 nm) and the emission filter 590 nm (+/−17.5 nm), with a gain setting of 40.

[3] = target: T3, Bovine hemoglobin (Bos taurus, UniProt P01966+P02070); assay: Hemoglobin assay; format: biochemical; conditions: 50 μM dye, 50 μM H2O2, 37° C., thirty minutes, FIG. 3
T3 construct: purchased Sigma H-2500
T3 sequence (P01966 2-142 limits assumed): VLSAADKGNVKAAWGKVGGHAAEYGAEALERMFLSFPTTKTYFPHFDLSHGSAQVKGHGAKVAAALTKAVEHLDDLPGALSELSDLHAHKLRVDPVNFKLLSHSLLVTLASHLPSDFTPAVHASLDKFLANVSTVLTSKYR
T3 sequence (P02070 whole entry): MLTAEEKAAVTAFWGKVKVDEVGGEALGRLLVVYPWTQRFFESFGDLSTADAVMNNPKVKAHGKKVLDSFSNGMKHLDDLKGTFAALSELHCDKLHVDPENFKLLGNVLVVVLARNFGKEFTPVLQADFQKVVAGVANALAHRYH
Procedure: Amplex Red (Molecular Probes Inc. A-12222) and Compound 4 were each resuspended to 10 mM in dry DMSO. Bovine hemoglobin (Sigma, catalog #H-2500) was serially diluted (in triplicate for each dye) two-fold in a 96-well microplate in 50 μl of 50 mM Tris, pH 7.5. 50 μl of either 100 μM Amplex Red+100 μM H2O2 or 100 μM Compound 4+100 μM H2O2 in 50 mM Tris, pH 7.5 was added to all wells. The final reagent concentrations in the wells was zero to 2000 ng/ml bovine hemoglobin, 50 μM H2O2, and 50 μM Amplex Red or Compound 4 in 100 μl of […], pH 7.5.
as §1

[4] = target: T4, COX-2 (Mus musculus, UniProt Q05769); assay: Detection of LPS-induced COX-2 activity in RAW 264.7 cell lysate; format: biochemical; conditions: 40 μM dye, 80 μM arachidonic acid, 200,000 lysed cell equivalents, 37° C., twenty minutes, FIG. 7
T4 construct: RAW 264.7 mouse macrophage cells (ATCC # TIB-71) were grown overnight; endogenous in cells; host or cells: RAW 264.7 mouse macrophage cells (ATCC TIB-71), LPS-treated, sonicated lysate
T4 sequence (Q05769 18-604): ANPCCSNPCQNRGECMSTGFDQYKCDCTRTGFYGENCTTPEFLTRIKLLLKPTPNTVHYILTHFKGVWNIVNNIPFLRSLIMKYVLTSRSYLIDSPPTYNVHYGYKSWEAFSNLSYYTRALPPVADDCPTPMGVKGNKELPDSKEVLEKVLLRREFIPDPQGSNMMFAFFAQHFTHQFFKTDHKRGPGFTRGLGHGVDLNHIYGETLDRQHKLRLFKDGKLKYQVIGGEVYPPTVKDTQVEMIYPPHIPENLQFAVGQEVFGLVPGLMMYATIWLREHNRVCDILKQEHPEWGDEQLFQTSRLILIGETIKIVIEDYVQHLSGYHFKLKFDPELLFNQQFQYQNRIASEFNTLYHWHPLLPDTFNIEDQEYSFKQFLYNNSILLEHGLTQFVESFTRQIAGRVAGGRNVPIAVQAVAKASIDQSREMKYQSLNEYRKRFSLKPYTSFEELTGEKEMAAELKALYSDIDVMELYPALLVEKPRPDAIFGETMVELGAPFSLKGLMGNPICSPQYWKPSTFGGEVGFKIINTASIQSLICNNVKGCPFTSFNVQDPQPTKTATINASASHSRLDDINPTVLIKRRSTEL
Procedure: The following morning the old media was removed and replaced with 12 ml fresh, warm, DMEM+10% FBS. To one plate, 12 μl of 100 μg/ml lipopolysaccaride (LPS) from E. coli strain 055:B5 (Sigma, catalog #L2880) in water was added. To the other plate, 12 μl of water alone was added. Both plates were incubated for 8 hours, 37° C., 5% CO2. The cells from each plate were gently resuspended into ice-cold 100 mM Tris, pH 7.5 to 4000 cells/μl (counted by hemocytometer). Both batches of cells were lysed with a probe sonicator for 40 seconds with a 30% duty cycle using power output of 3 on a scale of 1 to 10. 50 μl of the resulting cell lysates were added to a 96-well microplate. […] The plate was incubated at room temperature (˜24° C.) for 10 minutes to allow the COX-2 inhibitor time to inhibit the enzyme.
The resulting reactions were incubated at 37° C. in the dark for twenty minutes. At that point, the resulting fluorescence was measured on a PerSeptive Biosystems CytoFluor 4000 microtiter plate reader (Framingham, Mass.). The excitation filter was 530 nm (+/−12.5 nm) and the emission filter 590 nm (+/−17.5 nm), with a gain setting of 50.

[5] = target: T5, Myeloperoxidase (Homo sapiens, UniProt P05164); assay: Detection of myeloperoxidase; format: biochemical; conditions: 125 μM Compound 4, 50 μM hydrogen peroxide, PBS, 37° C.
T5 construct: purchased Sigma M-6908
T5 sequence (P05164 49-745): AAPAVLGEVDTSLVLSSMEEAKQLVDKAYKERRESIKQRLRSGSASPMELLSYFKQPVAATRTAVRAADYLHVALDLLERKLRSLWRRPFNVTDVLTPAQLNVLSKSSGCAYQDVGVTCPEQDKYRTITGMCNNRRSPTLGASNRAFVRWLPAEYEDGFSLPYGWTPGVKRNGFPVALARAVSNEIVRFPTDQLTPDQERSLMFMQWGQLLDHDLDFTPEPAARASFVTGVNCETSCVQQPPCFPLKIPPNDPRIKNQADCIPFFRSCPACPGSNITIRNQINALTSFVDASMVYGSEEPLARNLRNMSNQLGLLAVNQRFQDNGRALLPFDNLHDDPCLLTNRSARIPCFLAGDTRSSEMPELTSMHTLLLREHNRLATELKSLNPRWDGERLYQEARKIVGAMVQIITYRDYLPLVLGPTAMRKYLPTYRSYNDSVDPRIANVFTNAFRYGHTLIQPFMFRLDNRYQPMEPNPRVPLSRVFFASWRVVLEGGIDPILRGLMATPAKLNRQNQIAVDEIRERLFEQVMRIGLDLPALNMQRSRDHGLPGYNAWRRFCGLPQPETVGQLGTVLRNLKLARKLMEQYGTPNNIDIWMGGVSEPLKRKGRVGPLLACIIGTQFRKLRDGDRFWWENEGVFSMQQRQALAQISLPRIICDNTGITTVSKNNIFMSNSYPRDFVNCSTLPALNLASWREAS
Procedure: Myeloperoxidase (Sigma # M-6908) was diluted to 1 unit/mL using phosphate buffered saline (PBS, 50 mM sodium phosphate, pH 7.4, 150 mM sodium chloride). The solution was then serially diluted two fold using the same buffer. 50 μL of the preparations were added in a 96-well microplate (Nunc # 449824). 20 μL of 625 μM Compound 4 and 30 μl of 165 μM hydrogen peroxide (Aldrich # 323381) in PBS were added to all wells. The final reagent concentration in the wells was zero to 0.5 U/mL myeloperoxidase, 125 μM Compound 4 and 50 μM hydrogen peroxide in 100 μl of PBS.
The resulting reactions were incubated at 37° C. in a PerSeptive Biosystems CytoFluor 4000 microtiter plate reader (Framingham, Mass.). The excitation filter was 530 nm (+/−12.5 nm) and the emission filter 580 nm (+/−25 nm), with a gain setting of 35. Fluorescence was read every five minutes for up to 30 minutes.

[6] = Photostability study (continuous irradiation in a spectrofluorimeter); format: physicochemical; conditions: solutions matched by optical density 0.03 at 560 nm, aqueous buffer pH 9, continuous irradiation at 560 nm
Procedure: For example, solutions of each were matched by optical density (0.03 at 560 nm in aqueous buffer at pH 9), then continuously irradiated in a spectrofluorimeter at 560 nm for 30 minutes. Over the duration of the experiment, resorufin photobleached to a greater extent than any of the fluorinated analogs.

Fluorescence remaining after irradiation for 30 minutes at 560 nm [6]: 94%
Compound: O=c1ccc2nc3cc(F)c(O)cc3oc-2c1 [Compound 7]

Fluorescence remaining after irradiation for 30 minutes at 560 nm [6]: 95%
Compound: O=c1ccc2nc3c(F)cc(O)cc3oc-2c1 [Compound 8]

Fluorescence remaining after irradiation for 30 minutes at 560 nm [6]: 98%
Compound: O=c1ccc2nc3c(F)c(F)c(O)c(F)c3oc-2c1 [Compound 9]

More lines, now with the values behind:

Compound: CC(=O)N1c2ccc(O)cc2Oc2cc(O)ccc21 [Amplex Red, reference compound]
Z-factor ([1]; HRP 0.016 units/mL): 1.30 | Z-factor ([1]; HRP 0.063 units/mL): 0.51 | Z-factor ([1]; HRP 0.125 units/mL): 0.69 | Z-factor ([1]; HRP 0.25 units/mL): 0.85 | Lower limit of detection of HRP activity [1]: 0.032 units/mL

Compound: CC(=O)N1c2cc(F)c(O)cc2Oc2cc(O)c(F)cc21 [Compound 4, 2,8-Difluoro-10-acetyl-3,7-dihydroxyphenoxazine]
Fluorescent signal compared with Amplex Red [2]: greater fluorescent intensity signal | Fluorescence brightness compared with Amplex Red [3]: brighter | Relative fluorescent signal compared with Amplex Red [4]: stronger relative fluorescent signal | Z-factor ([1]; HRP 0.016 units/mL): 0.72 | Z-factor ([1]; HRP 0.032 units/mL): 0.89 | Z-factor ([1]; HRP 0.063 units/mL): 0.90 | Z-factor ([1]; HRP 0.125 units/mL): 0.81 | Z-factor ([1]; HRP 0.25 units/mL): 0.89 | Signal strength and dynamic range compared with Amplex Red ([1]; pH 5.5, FIG. 9): significantly greater | Lower limit of detection of HRP activity [1]: less than 0.016 units/mL | Limit of detection of myeloperoxidase [5]: about 9.6 ng/mL | Limit of detection of myeloperoxidase ([5]; FIG. 10): 0.0078 U/mL

Compound: O=c1ccc2nc3cc(F)c(O)c(F)c3oc-2c1 [Compound 5]
Fluorescence remaining after irradiation for 30 minutes at 560 nm [6]: 96%

Compound: O=c1ccc2nc3ccc(O)c(F)c3oc-2c1 [Compound 6]
Fluorescence remaining after irradiation for 30 minutes at 560 nm [6]: 97%

Compound: O=c1ccc2nc3ccc(O)cc3oc-2c1 [resorufin]
Fluorescence remaining after irradiation for 30 minutes at 560 nm [6]: 91%
